Measured values: patent US9597407B2, “Targeted antimicrobial moieties” (C3 Jian, Inc., priority 2009, dated 2017)
Entries after “also recorded” stand apart in the source; their conditions may differ.

Key:
bacteria = assay: Binding of targeting peptides to microorganisms (Table 3); settings: peptide binding in aqueous buffers that varied depending on peptide solubility; preferably 1x PBS
microorganisms [1] = assay: Peptide activities: binding, antimicrobial, growth or phenotype altering (Table 8)
Source text: In certain embodiments, peptides described herein can have multiple activities. Thus for example, a peptide can have both binding/targeting activity and antimicrobial activity. Such peptides can be used, e.g., in a chimeric construct, for any or all of these properties. Thus, for example, a peptide designated “B” in Table 8 can be used as a targeting peptide. If it is also designated G or M it can also be used for antimicrobial activity.

microorganisms [2] = assay: Morphology, biofilm and growth disruption by peptides (Table 5); type: cell-based; design: key: A: Peptide aggregates; B: Less hyphal formation; Clumps; Diffuse clumps and small polyps; F: Diffuse growth; H: Thin; I: Growth inhibition; Microcolony formation; Rippled; Small polyps; Thick; W: Halo formation on top, microlonies on bottom
Source text: In certain embodiments peptides that induce alterations in phenotype or other biological activities can also be used as antimicrobial effector moieties.

Substance | Target(s) (microorganisms bound by the targeting peptide) (bacteria) | Activities (microorganisms [1]) | Organism, effect (morphology, biofilm and growth disruption) (microorganisms [2]; B. subtilis) | Organism, effect (morphology, biofilm and growth disruption) (microorganisms [2]; C. jeikeium) | Organism, effect (morphology, biofilm and growth disruption) (microorganisms [2]; C. jejuni) | Organism, effect (morphology, biofilm and growth disruption) (microorganisms [2]; MRSA) | Organism, effect (morphology, biofilm and growth disruption) (microorganisms [2]; M. luteus) | Organism, effect (morphology, biofilm and growth disruption) (microorganisms [2]; S. pneumoniae) | Organism, effect (morphology, biofilm and growth disruption) (microorganisms [2]; E. coli) | Organism, effect (morphology, biofilm and growth disruption) (microorganisms [2]; S. epidermidis) | Target(s) (microorganism bound by the targeting peptide) (bacteria) | Organism, effect (morphology, biofilm and growth disruption) (microorganisms [2]; E. faecalis) | Organism, effect (morphology, biofilm and growth disruption) (microorganisms [2]; C. albicans)
PF-564 (TIILNDQINSLQERLNKLNAETDRR; Peptide with targeting and/or antimicrobial activity) | S. epidermidis; also recorded: C. albicans; also recorded: S. pneumoniae; also recorded: C. jeikeium | G B | B. subtilis (D) | C. jeikeium (R) | C. jejuni (R) | MRSA (C) |  |  |  |  |  |  | 
PF-566 (EAQQVTQQLGADFNAITTPTATKV; Peptide with targeting and/or antimicrobial activity) | P. mirabilis; also recorded: S. pneumoniae | G B | B. subtilis (C) | C. jeikeium (C) | C. jejuni (D) | MRSA (M) | M. luteus (D) | S. pneumoniae (D) |  |  |  |  | 
PF-567 (QQRVKAVDASLSQVSTQVSGAVASA; Peptide with targeting and/or antimicrobial activity) | S. epidermidis and P. aeruginosa and C. albicans and MRSA and S. pneumoniae and C. jeikeium | G B |  | C. jeikeium (C) | C. jejuni (D) | MRSA (D) | M. luteus (C) | S. pneumoniae (D) |  |  |  |  | 
PF-569 (KSKISEYTEKEFLEFVEDIYTNNK; Peptide with targeting and/or antimicrobial activity) | M. luteus; also recorded: P. mirabilis; also recorded: S. pneumoniae; also recorded: E. faecalis; also recorded: C. jeikeium | G B | B. subtilis (D) |  |  |  |  |  |  |  |  |  | 
PF-572 (WRASKGLPGFKAG; Peptide with targeting and/or antimicrobial activity) | S. epidermidis; also recorded: M. luteus; also recorded: E. coli; also recorded: S. pneumoniae; also recorded: C. jeikeium | G B | B. subtilis (D) |  |  |  |  | S. pneumoniae (R) |  |  |  |  | 
PF-573 (EKKLIVKLIDSIGKSHEEIVGAG; Peptide with targeting and/or antimicrobial activity) | S. epidermidis; also recorded: S. pneumoniae | G B |  |  |  |  |  | S. pneumoniae (C) |  |  |  |  | 
PF-576 (AYSGELPEPLVRKMSKEQVRSVMGK; Peptide with targeting and/or antimicrobial activity) | M. luteus; also recorded: P. mirabilis; also recorded: E. coli; also recorded: P. aeruginosa; also recorded: C. albicans; also recorded: S. pneumoniae | G B |  |  | C. jejuni (C) | MRSA (R) |  | S. pneumoniae (C) | E. coli (A) | S. epidermidis (A) |  |  | 
PF-587 (ASGKYQSYLLNVYVDSKKDRLDIFDKLKAKAKFVL; Peptide with targeting and/or antimicrobial activity) | S. epidermidis and M. luteus and E. coli and MRSA and S. pneumoniae and E. faecalis and C. jeikeium | G B |  |  |  |  |  | S. pneumoniae (C) |  |  |  |  | 
PF-589 (APLRIDEIRNSNVIDEVLDCAPKKQEHFFVVPKIIE; Peptide with targeting and/or antimicrobial activity) | S. epidermidis and C. albicans and MRSA and S. pneumoniae | G B |  |  |  | MRSA (M) |  | S. pneumoniae (C) |  |  |  |  | 
PF-614 (GLDIYA; Peptide with targeting and/or antimicrobial activity) |  | G B |  |  | C. jejuni (R) |  |  | S. pneumoniae (R) |  | S. epidermidis (M) | S. epidermidis; also recorded: E. coli; also recorded: C. jeikeium | E. faecalis (A) | 
PF-616 (chain 1 IVFVVTKEKK; chain 2 IVFVVTKEKK; Peptide with targeting and/or antimicrobial activity) |  | G B |  |  |  |  |  |  |  | S. epidermidis (R) | C. jeikeium | E. faecalis (A) | 
PF-617 (chain 1 PMNAAEPE; chain 2 PMNAAEPE; Peptide with targeting and/or antimicrobial activity) |  | G B |  |  |  |  |  | S. pneumoniae (I) |  |  | P. aeruginosa; also recorded: C. albicans | E. faecalis (H) | C. albicans (H)
PF-621 (chain 1 PPSSFLV; chain 2 PPSSFLV; Peptide with targeting and/or antimicrobial activity) |  | G B |  |  |  |  |  | S. pneumoniae (I) |  |  | S. epidermidis; also recorded: C. albicans | E. faecalis (H) | 
PF-622 (chain 1 TREDVFSVRLINNIVNKQA; chain 2 TREDVFSVRLINNIVNKQA; Peptide with targeting and/or antimicrobial activity) |  | G B |  | C. jeikeium (D) |  | MRSA (D) |  | S. pneumoniae (M) |  | S. epidermidis (D) | S. epidermidis; also recorded: P. aeruginosa; also recorded: C. albicans; also recorded: S. pneumoniae; also recorded: E. faecalis; also recorded: C. jeikeium | E. faecalis (D) | 
PF-623 (chain 1 VLFAVYLGALDWLFSWLTQKM; chain 2 VLFAVYLGALDWLFSWLTQKM; Peptide with targeting and/or antimicrobial activity) |  | G B |  | C. jeikeium (R) |  | MRSA (D) |  | S. pneumoniae (D) |  | S. epidermidis (M) | S. epidermidis and P. aeruginosa and MRSA and S. pneumoniae and E. faecalis and C. jeikeium | E. faecalis (D) | 
